In the Deep4Chem optical property database:

Experiment: solvent given as SMILES

F[B-]1(F)Oc2ccc(Br)cc2-c2c3c(c4c([n+]21)CCc1ccccc1-4)CCc1ccccc1-3
absorption maximum (in ClCCl): 347 nm

F[B-]1(F)n2cccc2C(c2c3ccccc3cc3ccccc23)=C2C=CC=[N+]21
absorption maximum (in CC#N): 502 nm
absorption maximum (in CCCCCC): 505 nm
absorption maximum (in CCO): 503 nm
absorption maximum (in CN(C)C=O): 506 nm
absorption maximum (in Cc1ccccc1): 508 nm
absorption maximum (in ClCCl): 506 nm

COc1ccc(-n2nc(C(=O)N3CCCC3)c(N3CCCC3)n2)cc1
absorption maximum (in CC#N): 328 nm
absorption maximum (in CCCCCC): 332 nm
absorption maximum (in CCO): 328 nm
absorption maximum (in CN(C)C=O): 334 nm
absorption maximum (in ClC(Cl)Cl): 331 nm

Brc1ccc(-c2nc3sc4ccccc4c3s2)cc1
absorption maximum (in CS(C)=O): 353 nm

O=C1C=C(Nc2ccc(F)cc2[N+](=O)[O-])C(=O)c2ccccc21
absorption maximum (in CO): 448 nm

Clc1nc(Cl)nc(Nc2ccc3cc4ccccc4cc3c2)n1
absorption maximum (in C1COCCO1): 396 nm
absorption maximum (in CC#N): 398 nm
absorption maximum (in CCCCOCCCC): 395 nm
absorption maximum (in CCOC(C)=O): 394 nm

c1ccc2[nH]ncc2c1
absorption maximum (in C1CCCCC1): 294 nm

CCC1=C(C)C2=C(/C=C/c3ccc([N+](=O)[O-])cc3)c3c(C)c(CC)c(/C=C/c4ccc(OC)cc4)n3[B-](F)(F)[N+]2=C1/C=C/c1ccc(OC)cc1
absorption maximum (in ClCCl): 666 nm

CC(C)(C)c1cc2c3c(c1)-c1cccc4c1N(B3N1c3ccccc3Sc3cccc-2c31)c1ccccc1S4
absorption maximum (in C1CCOC1): 381 nm

CC1(C)c2ccccc2N(c2ccc(-c3nc(-c4ccccc4)cc(-c4ccccc4)n3)cc2)c2ccccc21
absorption maximum (in Cc1ccccc1): 366.6 nm

O=c1c2ccccc2n2c3ccccc3c(=O)c3cccc1c32
absorption maximum (in Cc1ccccc1): 432.96 nm

CN(C)c1ccc(/C=C/c2nc3cc(Br)ccc3nc2-c2ccccc2)cc1
absorption maximum (in C1COCCO1): 445 nm
absorption maximum (in CC#N): 448 nm
absorption maximum (in ClCCl): 453 nm

CCOCCC1=Cc2nc1ccc1[nH]c(cc1CCOCC)c1nc(ccc3[nH]c2cc3CCOCC)C(CCOCC)=C1
absorption maximum (in Cc1ccccc1): 638 nm

F[B-]1(F)OC(c2ccc(N3CCCCC3)cc2)=Cc2cccc[n+]21
absorption maximum (in ClC(Cl)Cl): 421 nm

CC[N+]1(CC)CN2C(=N1)C(C(=O)O)=Cc1cc(Cl)ccc12
absorption maximum (in O): 377 nm

COCCOCCOCCOCC(COCCOCCOCCOC)Oc1cc(/C=C/c2ccc(/C=C(\C#N)c3ccc(C(F)(F)F)cc3)cc2)c(OC(COCCOCCOCCOC)COCCOCCOCCOC)cc1/C=C/c1ccc(/C=C(\C#N)c2ccc(C(F)(F)F)cc2)cc1
absorption maximum (in ClCCl): 439 nm

Cn1c(=O)c(/N=N/c2ccc(S(=O)(=O)O)c3ccccc23)c(O)c2ccccc21
absorption maximum (in C1CCOC1): 467 nm
absorption maximum (in CC(C)=O): 465 nm
absorption maximum (in CCOC(C)=O): 464 nm
absorption maximum (in CO): 468 nm
absorption maximum (in CS(C)=O): 470 nm
absorption maximum (in Cc1ccccc1): 469 nm
absorption maximum (in ClCCl): 467 nm
absorption maximum (in O): 456 nm

Cc1cc2cc3ccccc3cc2cn1
absorption maximum (in CCO): 379.08 nm

N#Cc1cc2ccc(cc2)c2cccc3cccc(c4ccc(cc4)cc(C#N)c4ccc(cc4)c4cccc5cccc(c6ccc1cc6)c54)c32
absorption maximum (in Cc1ccccc1): 350 nm

N#Cc1ccc(-n2c(-c3ccc(-c4ccc(-c5nc6c7ccccc7c7ccccc7c6n5-c5ccc(C#N)c6ccccc56)c5ccccc45)c4ccccc34)nc3c4ccccc4c4ccccc4c32)c2ccccc12
absorption maximum (in ClCCl): 336 nm

Cc1cccc2nc(-c3ccc(-c4cc(=O)cc(-c5ccccc5)o4)cc3)c(NC3CCCCC3)n12
absorption maximum (in ClCCl): 356 nm

CCC1=C(C)C2=C(C)c3c(I)c(I)c(I)n3[B-](F)(F)[N+]2=C1C
absorption maximum (in C1CCCCC1): 531.5 nm
absorption maximum (in CC(C)=O): 517.5 nm
absorption maximum (in CCO): 522 nm
absorption maximum (in CCOC(C)=O): 521 nm
absorption maximum (in CO): 519.5 nm
absorption maximum (in OCC(F)(F)F): 511.5 nm

CCOC(=O)c1c(-c2cc3ccccc3oc2=O)nn(-c2ccc(C)c(C)c2)c1C(=O)OCC
absorption maximum (in ClCCl): 322 nm

Cc1ccc(-c2ccc(/C=C/c3ccccc3)cn2)nc1
absorption maximum (in CC#N): 335 nm

COCCOCCOCCOCC(COCCOCCOCCOC)Oc1cc(/C=C/c2ccc(/C=C(\C#N)C(=O)c3ccccc3)cc2)c(OC(COCCOCCOCCOC)COCCOCCOCCOC)cc1/C=C/c1ccc(/C=C(\C#N)C(=O)c2ccccc2)cc1
absorption maximum (in ClCCl): 461 nm

C1=C(c2ccccc2)C=C(c2ccccc2)/C1=C/C1CCCCC1
absorption maximum (in C1CCOC1): 365 nm

CC(C)[Si](C#Cc1c2nsnc2c(C#C[Si](C(C)C)(C(C)C)C(C)C)c2nc3c(nc12)Cc1ccccc1-3)(C(C)C)C(C)C
absorption maximum (in CCCCCC): 540 nm

CCc1ccc(/C=C/c2ccc(-c3nnc(-c4ccc(-c5cc6ccccc6s5)cc4)o3)cc2)cc1
absorption maximum (in CC#N): 342 nm
absorption maximum (in CC(C)=O): 347 nm
absorption maximum (in CCCCCCCC): 341 nm
absorption maximum (in CCCCCCCCCCO): 357 nm
absorption maximum (in CCCCCCCCO): 357 nm
absorption maximum (in CCCCCO): 354 nm
absorption maximum (in CCCO): 347 nm
absorption maximum (in CN(C)C=O): 355 nm
absorption maximum (in CO): 326 nm
absorption maximum (in CS(C)=O): 350 nm

CCCCN(CCCC)c1ccc(/C=C/c2ccc3nc(-c4ccccc4)c(/C=C/c4ccc(N(C)C)cc4)nc3c2)cc1
absorption maximum (in C1COCCO1): 458 nm
absorption maximum (in CC#N): 462 nm
absorption maximum (in ClCCl): 468 nm

CC(C)(C)Nc1oc(C=Cc2ccccc2)c(C(=O)OC(C)(C)C)c1C(=O)OC(C)(C)C
absorption maximum (in CC#N): 384 nm

Cc1nc2ccc(/C=C/c3ccc(N(C)C)cc3)cc2nc1-c1ccccc1
absorption maximum (in C1COCCO1): 403 nm
absorption maximum (in CC#N): 400 nm
absorption maximum (in ClCCl): 408 nm

Fc1ccc(C#Cc2c(C#Cc3ccc(F)cc3)c(C#Cc3ccc(F)cc3)c(C#Cc3ccc(F)cc3)c(C#Cc3ccc(F)cc3)c2C#Cc2ccc(F)cc2)cc1
absorption maximum (in ClCCl): 368 nm

COc1ccc(/C=C/c2nc(-c3ccc([N+](=O)[O-])cc3)[nH]c2/C=C/c2ccc(OC)cc2)cc1
absorption maximum (in ClCCl): 455 nm

Cc1ccc(N(c2cc(C(C)(C)C)ccc2C)c2ccc3ccc4c(N(c5ccc(C)cc5C)c5cc(C(C)(C)C)ccc5C)ccc5ccc2c3c54)c(C)c1
absorption maximum (in Cc1ccccc1): 431 nm

COc1ccc(-c2cc3c(s2)c(C(C)=O)cc(=O)n3Cc2ccccc2)cc1
absorption maximum (in CC#N): 420 nm
absorption maximum (in ClCCl): 426 nm

CC(C)(C)c1cc2ccc3c(N(c4ccc(F)cc4)c4ccc(F)cc4)cc(N(c4ccc(F)cc4)c4ccc(F)cc4)c4ccc(c1)c2c34
absorption maximum (in ClCCl): 414 nm

O=c1cc(C(F)(F)F)c2cc3c4c(c2o1)CCCN4CCC3
absorption maximum (in C1CCCCC1): 393 nm
absorption maximum (in CC#N): 418 nm
absorption maximum (in CCO): 421 nm
absorption maximum (in CCOC(C)=O): 409 nm
absorption maximum (in OCC(O)CO): 434 nm

COc1ccc2cc(C3=[N+]4C(=Nc5c(-c6ccc7ccccc7c6)c(Br)c(-c6ccc7cc(OC)ccc7c6)n5[B-]4(F)F)C(c4ccc5ccccc5c4)=C3Br)ccc2c1
absorption maximum (in ClCCl): 698 nm

CN(C)c1ccc(C#Cc2ccc3c(N(C)C)cc(-c4ccccc4)cc3c2)cc1
absorption maximum (in CC#N): 342.13 nm
absorption maximum (in CCO): 335.73 nm
absorption maximum (in ClCCl): 341 nm

CC(C)(C)c1ccc2oc3nc4oc5ccc(-n6c7ccccc7c7ccccc76)cc5c4cc3c2c1
absorption maximum (in ClC(Cl)Cl): 348 nm

CC(=O)c1ccc(/C=C/C=C/C2=NC3C(=O)NC(N)=NC3N2[C@H]2C[C@H](O)[C@@H](CO)O2)cc1 (stereo not given in full)
absorption maximum (in CC#N): 392 nm
absorption maximum (in CO): 388 nm

Cc1ccc(-c2nc(-c3ccc(O)cc3)[nH]c2-c2ccc(C)cc2)cc1
absorption maximum (in CO): 295 nm

COc1ccc(N2c3c(sc4ccccc34)Sc3sc4ccccc4c32)cc1
absorption maximum (in ClCCl): 309 nm

CCCCCCCCCCCCCCCCn1c(-c2cc(-c3nc4ccccc4n3CCCCCCCCCCCCCCCC)cc(-c3nc4ccccc4n3CCCCCCCCCCCCCCCC)c2)nc2ccccc21
absorption maximum (in ClCCl): 301 nm

CCC(C)(C)c1ccc2c(c1)C(CCOC)(CCOC)c1cc(-c3ccc(-c4ccc5c(c4)C(CCOC)(CCOC)c4cc(C(C)(C)CC)ccc4-5)cc3)ccc1-2
absorption maximum (in C1CCCCC1): 332 nm

O=C([O-])c1cc(N2C(=O)C=CC2=O)ccc1-c1c2cc(F)c(=O)cc-2oc2cc([O-])c(F)cc12
absorption maximum (in O): 493 nm

C(=C1c2ccccc2-c2ccccc21)c1ccc(C=C2c3ccccc3-c3ccccc32)cc1
absorption maximum (in C1CCOC1): 365 nm

O=c1c2cccc3cccc(c32)c2nc3c(F)c(F)c(F)c(F)c3n12
absorption maximum (in ClCCl): 382 nm

CC(C)[Si](C#Cc1c2ccccc2c(C#Cc2c3ccccc3c(C#Cc3c4ccccc4c(C#Cc4c5ccccc5c(C#Cc5c6ccccc6c(C#C[Si](C(C)C)(C(C)C)C(C)C)c6ccccc56)c5ccccc45)c4ccccc34)c3ccccc23)c2ccccc12)(C(C)C)C(C)C
absorption maximum (in Cc1ccccc1): 585 nm

CC1=CC(Br)=CN2C[n+]3cc(Br)cc(C)c3N=C12
absorption maximum (in CO): 436 nm

Brc1ccc(-c2nc(-c3ccc(C#Cc4ccc(-n5c6ccccc6c6ccccc65)cc4)cc3)nc(-c3ccc(C#Cc4ccc(-n5c6ccccc6c6ccccc65)cc4)cc3)n2)cc1
absorption maximum (in ClCCl): 357 nm

N#Cc1ccc(-c2nc(-c3ccccc3)c3ccccn23)cc1
absorption maximum (in C1CCCCC1): 377 nm
absorption maximum (in CC#N): 377 nm
absorption maximum (in CO): 372 nm
absorption maximum (in ClCCl): 380 nm
absorption maximum (in O): 430 nm

COc1ccc(C2=N/C(=C\c3ccccc3)C(=O)N2)cc1OC
absorption maximum (in C1COCCO1): 390 nm

CC(C)[Si](C#Cc1c2nc3ccccc3nc2c(C#C[Si](C(C)C)(C(C)C)C(C)C)c2nc3c4ccccc4c(=O)c4ccccc4c3nc12)(C(C)C)C(C)C
absorption maximum (in ClCCl): 603 nm

[O-]c1c(-c2nc3ccccc3s2)cc2ccc3cccc4ccc1c2c34
absorption maximum (in CC#N): 514 nm
absorption maximum (in CS(C)=O): 524 nm

O=[N+]([O-])c1cccs1
absorption maximum (in CO): 308 nm
absorption maximum (in O): 318 nm

Nc1ccc(N2C(=O)c3ccc4c5ccc6c7c(ccc(c8ccc(c3c48)C2=O)c75)C(=O)NC6=O)cc1
absorption maximum (in CN(C)C=O): 524 nm
